Assay results reported in ChEMBL document CHEMBL2321862, “Development and evaluation of novel phosphotyrosine mimetic inhibitors targeting the Src homology 2 domain of signaling lymphocytic activation molecule (SLAM) associated protein” (J Med Chem, 2013).
The source made the active and inactive calls. Peptide text beside a SMILES is read from it.

Key:
[1] = target: T1, SH2 domain-containing protein 1A (Homo sapiens) (UniProt O60880); assay: Inhibition of recombinant 6-His-tagged SLAM associated protein SH2 domain (unknown origin) expressed in Escherichia coli BL21(DE3) binding to biotinyl-KKSLTIpYAQVQK-NH2 attached to NeutrAvidin-coated plates using p-nitrophenyl phosphate as substrate up to 1 uM after 1 hr
T1 sequence (whole entry): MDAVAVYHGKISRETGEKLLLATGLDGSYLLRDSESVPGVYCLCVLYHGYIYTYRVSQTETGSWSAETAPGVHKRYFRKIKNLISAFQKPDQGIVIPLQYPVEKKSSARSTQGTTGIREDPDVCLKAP

[2] = target: T1, SH2 domain-containing protein 1A (Homo sapiens); assay: (§1) Inhibition of recombinant 6-His-tagged SLAM associated protein SH2 domain (unknown origin) expressed in Escherichia coli BL21(DE3) binding to biotinyl-KKSLTIpYAQVQK-NH2 attached to NeutrAvidin-coated plates using p-nitrophenyl phosphate as substrate after 1 hr
[3] = target: T2, SH2 domain-containing protein 1A (Homo sapiens, UniProt O60880); assay: as §1
T2 sequence (O60880 whole entry): T1 sequence (whole entry)

[4] = target: T1, SH2 domain-containing protein 1A (Homo sapiens); assay: Inhibition of recombinant 6-His-tagged SLAM associated protein SH2 domain (unknown origin) expressed in Escherichia coli BL21(DE3) binding to biotinyl-KKSLTIpYAQVQK-NH2 attached to NeutrAvidin-coated plates using p-nitrophenyl phosphate as substrate at 100 uM after 1 hr
[5] = target: T1, SH2 domain-containing protein 1A (Homo sapiens); assay: Inhibition of recombinant 6-His-tagged SLAM associated protein SH2 domain (unknown origin) expressed in Escherichia coli BL21(DE3) binding to biotinyl-KKSLTIpYAQVQK-NH2 attached to NeutrAvidin-coated plates using p-nitrophenyl phosphate as substrate at 10 uM after 1 hr relative to control
[6] = target: T1, SH2 domain-containing protein 1A (Homo sapiens); assay: as §1, with “hr in presence of calf intestine phosphatase” for “hr”

Compound | inhibition [1] | inhibition [2] | IC50 [3] [µM] | inhibition [4] | fold change (FC) [5] | inhibition [6]
CC(=O)N[C@@H](CC(=O)O)C(=O)N[C@@H](CC(=O)O)C(=O)N1CCC[C@H]1C(=O)N[C@@H](CO)C(=O)N[C@@H](Cc1ccc(OP(=O)(O)O)cc1)C(=O)N[C@H](C(=O)N[C@@H](CC(N)=O)C(=O)N[C@H](C(=O)N[C@@H](CCC(N)=O)C(N)=O)C(C)C)C(C)C (HELM PEPTIDE1{[ac].D.D.P.S.[O=C([C@H](Cc1ccc(OP(=O)(O)O)cc1)N[*:1])[*:2]].V.N.V.Q.[am]}$$$$V2.0) | inactive | – | – | – | – | –
NC(=O)[C@H](Cc1ccccc1)NC(=O)[C@H](Cc1ccc2c(c1)COP(=O)(O)O2)NC(=O)OCC1c2ccccc2-c2ccccc21 | – | Dose-dependent effect | 35 | Active | 0.73 | –
NC(=O)[C@H](CC(=O)O)NC(=O)[C@H](Cc1ccc2c(c1)COP(=O)(O)O2)NC(=O)OCC1c2ccccc2-c2ccccc21 | – | Dose-dependent effect | 17 | Active | 0.55 | –
NC(=O)[C@H](CC(=O)O)NC(=O)[C@@H](N)Cc1ccc2c(c1)COP(=O)(O)O2 | – | inactive | – | – | – | –
CC(C)(C)OC(=O)NCCCC[C@H](NC(=O)[C@H](Cc1ccc2c(c1)COP(=O)(O)O2)NC(=O)OCC1c2ccccc2-c2ccccc21)C(N)=O | – | Dose-dependent effect | 34 | Active | 0.7 | –
CC[C@H](C)[C@H](NC(=O)OCC1c2ccccc2-c2ccccc21)C(=O)N[C@@H](Cc1ccc2c(c1)COP(=O)(O)O2)C(=O)OC | – | – | – | Active | 1.51 | –
CC[C@H](C)[C@H](NC(=O)[C@@H](NC(=O)[C@H](CC(C)C)NC(=O)[C@H](CO)NC(=O)[C@H](CCCCN)NC(=O)[C@H](CCCCN)NC(C)=O)[C@@H](C)O)C(=O)N[C@@H](Cc1ccc(OP(=O)(O)O)cc1)C(=O)N[C@@H](C)C(=O)N[C@@H](CCC(N)=O)C(=O)N[C@H](C(=O)N[C@@H](CCC(N)=O)C(=O)N[C@@H](CCCCN)C(N)=O)C(C)C (HELM PEPTIDE1{[ac].K.K.S.L.T.I.[O=C([C@H](Cc1ccc(OP(=O)(O)O)cc1)N[*:1])[*:2]].A.Q.V.Q.K.[am]}$$$$V2.0) | – | Dose-dependent effect | – | – | – | inactive
COC(=O)[C@H](Cc1ccc2c(c1)COP(=O)(O)O2)NC(=O)[C@H](CC(N)=O)NC(=O)OCC1c2ccccc2-c2ccccc21 | – | – | – | Active | 0.8 | –
COC(=O)[C@H](Cc1ccc2c(c1)COP(=O)(O)O2)NC(=O)[C@H](CCCCN)NC(=O)OCC1c2ccccc2-c2ccccc21 | – | – | – | Active | 1.05 | –
COC(=O)[C@H](Cc1ccc2c(c1)COP(=O)(O)O2)NC(=O)[C@@H](NC(=O)OCC1c2ccccc2-c2ccccc21)[C@@H](C)O | – | – | – | Active | 0.82 | –
COC(=O)[C@H](Cc1ccc2c(c1)COP(=O)(O)O2)NC(=O)[C@H](CC(=O)NC(c1ccccc1)(c1ccccc1)c1ccccc1)NC(=O)OCC1c2ccccc2-c2ccccc21 | – | – | – | Active | 1.06 | –
NC(=O)CC[C@H](NC(=O)[C@H](Cc1ccc2c(c1)COP(=O)(O)O2)NC(=O)OCC1c2ccccc2-c2ccccc21)C(N)=O | – | – | – | Active | 0.99 | –
COC(=O)[C@H](Cc1ccc2c(c1)COP(=O)(O)O2)NC(=O)[C@H](CC(=O)OC(C)(C)C)NC(=O)OCC1c2ccccc2-c2ccccc21 | – | – | – | Active | 0.9 | –
COC(=O)[C@H](Cc1ccc2c(c1)COP(=O)(O)O2)NC(=O)[C@H](Cc1cn(C(=O)OC(C)(C)C)c2ccccc12)NC(=O)OCC1c2ccccc2-c2ccccc21 | – | – | – | Active | 1.2 | –
